# Data reported in patent EP0061162A2, “Cephalosporin derivatives, pharmaceutical compositions containing the same and production thereof” (KYOTO YAKUHIN KOGYO KABUSHIKI KAISHA, priority 1981, dated 1982).
# Experiment: Acute oral toxicity test in mice
# Settings: mouse, in vivo, suspension in 1% methylcellulose solution, male mice (ICR, 5-week-old), doses 0.5 g to 5.0 g/kg
# Description: The acut oral toxicity data for cephalosporin derivatives (I) and acid addition salt of the present invention in mice are shown below.
# Animals: Male mice (ICR, 5-week-old), n=3
# Method of administration: The cephalosporin derivatives as prepared in the above synthesis examples were administered in the form of suspension in 1% methylcellulose solution to mice orally at doses of 0.5 g to 5.0 g/kg.
compound,measurement,value
"CCOC(=O)OC(C)OC(=O)C1=CCS[C@@H]2[C@H](NC(=O)/C(=N\OC)c3csc(N)n3)C(=O)N12 (single isomer, unassigned) [Compound 1, l-(ethoxycarbonyloxy)ethyl 7-[2-(2-aminothiazol-4-yl)-2-methoxyiminoacetamido]-3-cephem-4-carboxylate (syn isomer)]",LD50,> 5000 mg/kg
